Source: patent publication US5281594A, “Substituted 1-(alkoxyphenyl)piperazines with ons and antihypertensive activity” (The Upjohn Company, priority 1992, dated 1994)
pKi: −log10 of the molar value. Read-outs that look alike come from different tables or passages of the source.

How the values were obtained:
[1] = system: dopaminergic neurons in the substantia nigra (SNPC); assay: Dopamine nerve impulse generation: depression of firing of substantia nigra dopamine neurons (agonist); assay type: in vivo, Sprague-Dawley rats; settings: for Emax / ED50: Rattus norvegicus, Neuron, iv; for Emax: read-out: Agonist Max.: maximal depression of firing; for ED50: read-out: Agonist ED50: dose to depress firing by 50%; for maximal depression on DA cell firing (% of control): 1 mg/kg i.v.
From the text: (§1) 3. Dopamine Nerve Impulse Generation
Dopaminergic agonists, such as apomorphine, depress nerve impulses generated by dopaminergic neurons. Indeed, all full dopamine agonists can completely suppress impulse generation so that the dopamine cells stop firing completely. As the name implies, partial agonists depress impulse generation only partly.
(§2) The activity of two compounds of the invention are compared with other known drugs in their effect on nerve impulse generation. Sprague-Dawley rats weighing between 250-350 g are anesthetized with chloral hydrate (400 mg/kg i.p.). Supplemental doses (50-100 mg/kg) are administered as needed. The fermoral artery and vein are cannulated to measure blood pressure and to permit i.v. administration of drug. Body temperature is maintained at 37° C. using a deltaphase isothermal pad. The animal's head is held in a stereotaxic device and a small burr hole made in the cranium. Extracellular action potentials are recorded with a glass microelectrode (tip size<1μm) filled with pontamine sky blue dye in 2M sodium chloride.
(§3) Dopaminergic neurons are identified by their long duration action potential (>2.5 ms), shape and firing pattern ([…]) according to B. S. Bunney and G. K. Aghajanian "Antipsychotic Drugs and Central Dopaminergic Neurons: A Model for Predicting Therapeutic Efficacy and Incidence of Extrapyramidal Side Effects, In: Predictability in Psychopharmacology: Preclinical and Clinical Correlates, eds.", Raven Press, N.Y., pp. 225-245 (1975). […] Watson "The Rat Brain in Stereotaxic Coordinates", Academic Press, Sydney (1982).
(§4) At the termination of each recording session, the location of the cell in the substantia nigra is identified by passing 10 μA cathodic current through the recording electrode for 10-20 minutes. The brain is then removed, fixed in 10% formalin, sectioned and stained, and the pontamine sky blue deposit verified in each animal.
(§5) All drug solutions are made in distilled water. Each drug injection contained no more than 0.15 ml of a given concentration, followed by a 0.2-0.4 ml of physiological saline to clean the catheter of any residual drug. Drug effects are measured as changes in firing rates as indicated by an integrated output throughout the experiment.

[2] = biological target: T1, D2 receptor (Rattus norvegicus, UniProt P61169); assay: biochemical; assay type: binding; settings: for binding to dopamine receptors (in words): at concentrations as high as 1,000 nM (m-tolyl) and 10,000 nM (p-methoxyphenyl), respectively
T1 sequence (P61169 whole entry): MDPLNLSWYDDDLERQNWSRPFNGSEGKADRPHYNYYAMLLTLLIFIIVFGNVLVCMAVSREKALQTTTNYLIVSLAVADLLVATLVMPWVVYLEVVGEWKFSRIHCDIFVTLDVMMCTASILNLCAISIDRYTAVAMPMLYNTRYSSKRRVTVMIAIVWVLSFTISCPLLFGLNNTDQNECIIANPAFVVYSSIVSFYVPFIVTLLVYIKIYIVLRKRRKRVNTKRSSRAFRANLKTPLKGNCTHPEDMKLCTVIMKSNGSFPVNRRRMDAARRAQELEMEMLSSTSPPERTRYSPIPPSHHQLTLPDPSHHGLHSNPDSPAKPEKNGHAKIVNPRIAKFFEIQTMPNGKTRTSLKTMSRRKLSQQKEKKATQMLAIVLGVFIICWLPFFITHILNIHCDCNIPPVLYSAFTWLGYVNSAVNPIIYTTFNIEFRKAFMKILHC
Protocol: The compounds of the invention are tested in a series of assays known by those skilled in the art as predictive for activity as dopamine partial agonists. […] Drugs. […] Except as otherwise stated, all other chemicals are widely available from commercial sources.
1. Dopamine Receptor Binding
Since a dopamine partial agonist must bind to the dopamine receptor, binding studies are used to determine the affinity of a compound for the receptor. […] The dopamine receptor affinity of the prior art compounds is compared to two compounds of the present invention following the procedure described in R. H. Roth. Comm. […] Compounds are tested at least four concentrations in triplicate. Non-specific binding is determined using 1 uM thioridazine.

[3] = system: dopamine receptor within the central nervous system; assay: Block of apomorphine-induced cage climbing; assay type: in vivo, CF-1 mice; settings: i.p., 25 minutes before apomorphine HCl 2.5 mg/kg i.p.; i.a. = inactive at top dose of 50 mg/kg
Protocol: Administration to mice stimulates dopaminergic receptors which results in enhanced locomotor activity, including climbing up the sides of wire cages. […] As a specific measure of their antagonistic effect, both the prior art compounds and the compounds of the invention are tested in their ability to block agonist-induced locomotor activity. […] During this time, mice that climb the walls more than half-way to the top (6") are removed from the cage. […] Co., New York, N.Y., p.

[4] = system: dopaminergic neurons in the substantia nigra (SNPC); assay: Dopamine nerve impulse generation: reversal of amphetamine-induced depression of firing (antagonist); assay type: in vivo, Sprague-Dawley rats; settings: for ED50: Rattus norvegicus, Neuron, iv, read-out: Antagonist ED50: dose to reverse amphetamine by 50%
From the text: as §1
Dopamine partial agonists act as dopamine antagonists when dopaminergic activity is excessive. Excessive dopaminergic activity can be induced by amphetamine, which causes dopamine to be released at nerve terminals in dopaminergic postsynaptic areas such as the caudate nucleus. This released dopamine activates negative feedback systems connecting postsynaptic dopaminergic areas to dopamine cells (e.g., the caudate nucleus feeds back onto substantia nigra neurons). Through this negative feedback system, amphetamine inhibits nerve impulses in dopamine neurons. Because dopamine antagonists block the access of dopamine to its receptors, these agents block the activation of the negative feedback pathways. Thus, dopamine antagonists and dopamine partial agonists block or reverse amphetamine's depression in dopamine nerve impulse activity. Because dopamine antagonists block not only the dopamine released by amphetamine but also the dopamine released for maintenance of a normal physiological state, dopamine antagonists not only completely reverse the effects of amphetamine but may actually cause an increase in dopamine neuron impulse activity (i.e. reverse amphetamine's inhibition by more than 100%). […] Indeed, partial agonists with higher intrinsic activities only partially reverse the effects of amphetamine.
as §2, §3, §4, §5

[5] = system: catalepsy; assay: Catalepsy
[6] = system: amphetamine-induced stereotyped behavior; assay: Antagonism of amphetamine-induced stereotyped behavior; assay type: in vivo, Sprague-Dawley rats; settings: for minimal effective dose: Rattus norvegicus, ip, i.p. 30 minutes before d-amphetamine (10 mg/kg s.c.), read-out: Antagonism amphetamine stereotypy: threshold dose for effect
From the text: Amphetamine releases excessive dopamine and induces a state in animals that serves as a model of positive-symptom schizophrenia. Amphetamine stimulates excessive locomotor activity in the rat, including uncontrolled stereotyped movements, characterized by licking and chewing. This model is indicative of the human response as amphetamine abuse is characterized by schizophrenic-like behavior in humans. Thus compounds may be tested in their ability to antagonize amphetamine.

[7] = system: catalepsy; settings: rat, in vivo
[8] = biological target: T1, D2 receptor; settings: rat striata; Kohler; cited from earlier work
[9] = system: D2 receptor; settings: PET scanning in humans; Farde; cited from earlier work
[10] = 3H-raclopride, whole rat brain, non-specific binding with 1 uM thioridazine, i.a. = inactive at specified concentration, read-out: Ki (dose for 50% occupation of the receptors)

With “7-hydroxy-1,2,3,4,4a,5,6,10-octahydrobenzo(f)quinoline [HW-165]” the “Agonist Max.: maximal depression of firing” value ([1]; i.v., Table 3) was 85% and the “Agonist ED50: dose to depress firing by 50%” value ([1]; i.v., i.a. = inactive) was 0.18 mg/kg.
CCCN1CCCC(c2cccc(O)c2)C1 (single isomer, unassigned; (-)) [(-)-3-PPP, (-)-3-(3-hydroxyphenyl)-N-n-propylpiperidine] showed an Emax ([1]; Table 3) of 70% and an ED50 ([1]; i.a. = inactive) of 0.086 mg/kg.
For CCCN(CCC)C1Cc2cccc3cc(O)cc(c23)C1 (single isomer, unassigned; (-)) [(-)-z-(dipropylamino)-2,3-dihydro-1-H-phenalen-5-ol], the pKi [2] was 9.33.
For Cc1cccc(N2CCN(CCCN3CCN(c4cccc(Cl)c4)C3=O)CC2)c1 [1-(m-chlorophenyl)-3-[3-[4-(m-tolyl)-1-piperazinyl]propyl]-2-imidazolidinone], the “ED50: dose for elimination of climbing behavior in 2 of 4 animals” value (shortened to “ED50: dose for elimination”) [3] was “i.a”, the pKi [2, 10] was under 6.00 and the “binding to dopamine receptors (in words)” value [2] was “do not bind at all”.
With COc1ccc(N2CCN(CCCN3CCN(c4cccc(Cl)c4)C3=O)CC2)cc1 [1-(m-chlorophenyl)-3-[3-[4-(p-methoxy-phenyl)-1-piperazinyl]propyl]-2-imidazolidinone] the “ED50: dose for elimination” value [3] was “i.a”, the pKi [2, 10] was under 5.00 and the “binding to dopamine receptors (in words)” value [2] was “do not bind at all”.
In the case of Cl.O=C1N(CCCN2CCN(c3ccccc3)CC2)CCN1c1ccccc1 [1-phenyl-3-[3-(4-phenyl-1-piperazinyl)propyl]-2-imidazolidinone hydrochloride], the “ED50: dose for elimination” value [3] was “i.a” and the pKi ([2]; read-out: Ki (dose for 50% occupation of the receptors)) was 6.49.
For CN1CCc2cccc3c2[C@H]1Cc1ccc(O)c(O)c1-3 [Apomorphine], the Emax ([1]; Table 3) was 100%, the ED50 ([1]; i.a. = inactive) was 0.01 mg/kg and the “Antagonist Max.: maximal reversal of amphetamine” value (from here on “Antagonist Max.: maximal reversal”) ([4]; i.v.) was 0%. For the same molecule, the “Antagonist ED50: dose to reverse amphetamine by 50%” value ([4]; i.v., i.a. = inactive) was “i.a”.
For COc1ccccc1N1CCN(CCCCN2CCN(c3ccccc3)C2=O)CC1 [Example 1, 1-[4-[4-(2-methoxyphenyl)-1-piperazinyl]butyl]-3-phenyl-2-imidazolidinone], the “Catalepsy: threshold dose for effect” value ([5]; defined as 200% increase in time a rat will spend leaning on a box without aid) was 10 mg/kg, the “catalepsy relative to dose blocking amphetamine-induced stereotypy (in words)” value ([5]; rat, in vivo) was “produces catalepsy only at doses much higher that required to block amphetamine-induced stereotypy” and the “maximal depression on DA cell firing (% of control)” value [1] was 32%. The Emax ([1]; Table 3) was 36%, the ED50 ([1]; i.a. = inactive) was 0.016 mg/kg and the “depression of SNPC cells (in words)” value ([1]; i.v.) was “behaved as dopamine partial agonists”. The ED50 ([4]; i.a. = inactive) was 0.04 mg/kg, the “Antagonist Max.: maximal reversal” value ([4]; i.v.) was 70% and the “antagonism of amphetamine-induced excessive dopaminergic activity (in words)” value ([4]; i.v.) was “only partially antagonized amphetamine”. For the same molecule, the “ED50: dose for elimination” value [3] was 12 mg/kg, the minimal effective dose [6] was 0.3 mg/kg and the “antagonism of amphetamine stereotypy, potency relative to haloperidol (in words)” value ([6]; rat, in vivo) was “antagonizes amphetamine stereotypy with a potency greater than that of halperidol”. The pKi [2, 10] was 8.59.
With COc1ccccc1N1CCN(CCCCN2CCN(c3cccc(Cl)c3)C2=O)CC1 [Example 2, 1-(3-chlorophenyl)-3-[4-[4-(2-methoxyphenyl)-1-piperazinyl]butyl]-2-imidazolidinone] the “maximal depression on DA cell firing (% of control)” value [1] was 54%, the “further depression of SNPC cells on increasing the dose (in words)” value ([1]; 3 mg/kg vs 1 mg/kg i.v.) was “does not further increase the depression in SNPC cells” and the Emax ([1]; Table 3) was 54%. For the same molecule, the ED50 ([1]; i.a. = inactive) was 0.108 mg/kg, the “depression of SNPC cells (in words)” value ([1]; i.v.) was “behaved as dopamine partial agonists” and the ED50 ([4]; i.a. = inactive) was 0.343 mg/kg. The “Antagonist Max.: maximal reversal” value ([4]; i.v.) was 73%, the “ED50: dose for elimination” value [3] was 42 mg/kg and the pKi [2, 10] was 8.43.
For O=C(CCCN1CCC(O)(c2ccc(Cl)cc2)CC1)c1ccc(F)cc1 [Haloperidol], the “Catalepsy: threshold dose for effect” value [7] was 1.0 mg/kg, the Emax [1] was 0% and the “Agonist ED50: dose to depress firing by 50%” value ([1]; i.v., i.a. = inactive) was “i.a”. For the same molecule, the ED50 ([4]; i.a. = inactive) was 0.008 mg/kg, the “Antagonist Max.: maximal reversal” value ([4]; i.v.) was 163% and the minimal effective dose [6] was 1 mg/kg.
With Cc1[nH]c2cccc3c2c1C[C@@H]1[C@@H]3C[C@H](NC(=O)C(C)(C)C)CN1C [SDZ 208-911, N-[(8-α)-2,6-dimethyl-ergoline-8-yl]-2,2-dimethylpropanamide] the ED50 [1] was 0.038 mg/kg, the Emax [1] was 38% and the ED50 [4] was 0.132 mg/kg. For the same molecule, the “Antagonist Max.: maximal reversal” value ([4]; i.v.) was 92%.
For CN1C[C@@H](NC(=O)C(C)(C)C)C[C@@H]2c3cccc4[nH]c(Cl)c(c34)C[C@H]21 [SDZ 208-912, N-[(8-α)-2-chloro-6-methyl-ergoline-8-yl]-2,2-dimethylpropanamide], the ED50 [1] was 0.021 mg/kg, the Emax [1] was 16% and the ED50 [4] was 0.115 mg/kg. For the same molecule, the “Antagonist Max.: maximal reversal” value ([4]; i.v.) was 93% and the pKi [2] was 7.80.
With CCN(CC)C(=O)N[C@H]1C[C@@H]2c3cccc4[nH]cc(c34)C[C@H]2N(C)C1 [TDHL, 1-1-diethyl-3-(6-methyl-8α-ergoline)-urea dihydrogenphosphate] the ED50 [1] was 0.021 mg/kg, the Emax [1] was 53% and the ED50 [4] was 0.136 mg/kg. The “Antagonist Max.: maximal reversal” value ([4]; i.v.) was 60%, the “ED50: dose for elimination” value [3] was 35 mg/kg and the pKi [2, 10] was 9.02.
For CCN1CCC[C@H]1CNC(=O)c1c(O)c(Cl)cc(Cl)c1OC [raclopride], the B max [8] is listed as 23.5 pmoles/g tissue, the Bmax ([2]; 3H-raclopride, whole rat brain) is listed as 1.6 pmoles/g tissue and the “binding to the D2 receptor (in words)” value [9] is listed as “binds to the D2 receptor”.
